From ChEMBL document CHEMBL1201862, “PubChem BioAssay data set” (2004)
Several values for one entry are separate records, joined by “and”; a condition that tells them apart may be missing. Equal entries are not always repeated.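 Growth conditions: 96-well plates. Treatment: test compound, 48 hours, 5 concentrations. Analysis: linear interpolation between bracketing concentrations; unreached endpoints set to highest concentration. The concentration for 50% growth inhibition is given as GI50.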 Activity calls are given as the source filed them. Rule as the data show it: active = GI50 up to about 1.1 µM and inactive = higher.

Assays:
Test in all cases: NCI-60 cell line screen, 48 h
[1] = tested on: HOP-62
[2] = tested on: EKVX
[3] = tested on: OVCAR-4
[4] = tested on: Hs-578T
[5] = tested on: COLO 205
[6] = tested on: NCI-H226
[7] = tested on: RXF 393
[8] = tested on: HCT-15
[9] = tested on: MCF7
[10] = tested on: DU-145
[11] = tested on: HCT-116
[12] = tested on: SN12C
[13] = tested on: PC-3
[14] = tested on: UO-31
[15] = tested on: HL-60
[16] = tested on: M14
[17] = tested on: U-251
[18] = tested on: HOP-92
[19] = tested on: SF-295
[20] = tested on: MDA-MB-435

SMILES	GI50 [1]	GI50 [2]	GI50 [3]	GI50 [4]	GI50 [5]	GI50 [6]	GI50 [7]	GI50 [8]	GI50 [9]	GI50 [10]	GI50 [11]	GI50 [12]	GI50 [13]	GI50 [14]	GI50 [15]	GI50 [16]	GI50 [17]	GI50 [18]	GI50 [19]	GI50 [20]
Clc1ccc(C(SCc2ccccc2)SCc2ccccc2)cc1	> 10 µM (inactive)	> 10 µM (inactive)	> 10 µM (inactive)	> 10 µM (inactive)	> 10 µM (inactive)	> 10 µM (inactive)	> 10 µM (inactive)	> 10 µM	> 10 µM (inactive)	> 10 µM (inactive)	> 10 µM (inactive)	> 10 µM (inactive)	> 10 µM (inactive)	> 10 µM (inactive)	> 10 µM (inactive)	> 10 µM (inactive)	> 10 µM (inactive)	> 10 µM (inactive)	> 10 µM (inactive)	
COc1ccc2c3c1OC1C(F)C=CC4(O)C(C2)NCCC314 (centres undefined)	2.11 µM (inactive)	2.49 µM (inactive)	1.95 µM (inactive)	2.62 µM (inactive)	1.44 µM (inactive)	11.2 µM (inactive)	1.62 µM (inactive)	2.37 µM	1.69 µM (inactive)	2.82 µM (inactive)	1.24 µM (inactive)	1.98 µM (inactive)	2.07 µM (inactive)	1.55 µM (inactive)		1.65 µM (inactive)	2.2 µM (inactive)	2.87 µM (inactive)	9.18 µM (inactive)	1.52 µM (inactive)
C[C@]12CC[C@@H]3c4ccc(O)cc4CC[C@H]3[C@@H]1C/C(=C\c1ccncc1)C2=O	20.3 µM (inactive)	28.1 µM (inactive)	15.6 µM (inactive)	14.2 µM (inactive)	29.7 µM (inactive)	19.3 µM (inactive)	20.4 µM (inactive)	7.29 µM	12 µM (inactive)	12.1 µM (inactive)			11.6 µM (inactive)	35.6 µM (inactive)	10.6 µM (inactive)	20.4 µM (inactive)	16.1 µM (inactive)	23.1 µM (inactive)	24.9 µM (inactive)	4.46 µM (inactive)
Cc1cc(NC(=S)SCc2ccc(F)cc2)c([N+](=O)[O-])cc1C	24.7 µM (inactive)	39.6 µM (inactive)	30.9 µM (inactive)	13.4 µM (inactive)	19.3 µM (inactive)	16.6 µM (inactive)	22.9 µM (inactive)	18.3 µM	42.1 µM (inactive)	32.2 µM (inactive)	26.2 µM (inactive)	19.4 µM (inactive)	42.2 µM (inactive)		16.9 µM (inactive)	35.5 µM (inactive)	22.4 µM (inactive)	18.4 µM (inactive)	34.5 µM (inactive)	26.7 µM (inactive)
OC(c1cc(C(F)(F)F)nc2c(Cl)cc(Cl)cc12)C1CCCCN1 (centres undefined)	3.77 µM (inactive)	> 100 µM (inactive)	5.01 µM (inactive)	> 22.4 µM (inactive)	3.22 µM (inactive)	16.8 µM (inactive)	4.8 µM (inactive)	13 µM	12.5 µM (inactive)	7.01 µM (inactive)	13.6 µM (inactive)		> 22.5 µM (inactive)	0.906 µM (active)	5.82 µM (inactive)	> 25.1 µM (inactive)	25.4 µM (inactive)	7.26 µM (inactive)	12.2 µM (inactive)	5.61 µM (inactive)
CCOC(=O)CCSS(=O)(=O)C(F)(F)F	> 100 µM (inactive)	> 100 µM (inactive)	> 100 µM (inactive)		> 100 µM (inactive)	> 100 µM (inactive)	> 100 µM (inactive)	> 100 µM	> 100 µM (inactive)	> 100 µM (inactive)	> 100 µM (inactive)	> 100 µM (inactive)	> 100 µM (inactive)	> 100 µM (inactive)	> 100 µM (inactive)	> 100 µM (inactive)	> 100 µM (inactive)	> 100 µM (inactive)	> 100 µM (inactive)	> 100 µM (inactive)
COc1cc(NC(C)CCCN)c2ncccc2c1 (centres undefined) [PRIMAQUINE PHOSPHATE]		> 66.1 µM (inactive) and 77.3 µM (inactive)	> 88.3 µM (inactive)	39.4 µM (inactive)	17.8 µM (inactive) and 32.5 µM (inactive)	> 68.5 µM (inactive) and 97.9 µM (inactive)			16.4 µM (inactive)	99.1 µM (inactive)			33.6 µM (inactive)		8.17 µM (inactive) and 10.4 µM (inactive)				98.2 µM (inactive) and 52.4 µM (inactive)	38 µM (inactive)
CC1(O)OC(=O)C2=C1CCC1C2CCC2(C)C(O)CCC12 (centres undefined)	> 100 µM (inactive)	> 100 µM (inactive)	> 100 µM (inactive)	> 100 µM (inactive)		> 100 µM (inactive)		> 100 µM	> 100 µM (inactive)	> 100 µM (inactive)	> 100 µM (inactive)	> 100 µM (inactive)		> 100 µM (inactive)	> 100 µM (inactive)	> 100 µM (inactive)	> 100 µM (inactive)	> 100 µM (inactive)	> 100 µM (inactive)	> 100 µM (inactive)
N#C/C(N)=C(C#N)/N=C/NCc1ccccc1	> 100 µM (inactive)	> 100 µM (inactive)	> 100 µM (inactive)	> 100 µM (inactive)	> 100 µM (inactive)	> 100 µM (inactive)		> 100 µM	> 100 µM (inactive)	> 100 µM (inactive)	> 100 µM (inactive)	> 100 µM (inactive)	> 100 µM (inactive)	> 100 µM (inactive)	> 100 µM (inactive)	> 100 µM (inactive)	> 100 µM (inactive)		> 100 µM (inactive)	> 100 µM (inactive)
O=C(O)C1(C(O)c2ccccc2)SCCCS1 (centres undefined)	> 10 µM (inactive)	> 10 µM (inactive)		> 10 µM (inactive)		> 10 µM (inactive)	> 10 µM (inactive)	> 10 µM	> 10 µM (inactive)	> 10 µM (inactive)	> 10 µM (inactive)	> 10 µM (inactive)	> 10 µM (inactive)	> 10 µM (inactive)	> 10 µM (inactive)	> 10 µM (inactive)	> 10 µM (inactive)	> 10 µM (inactive)	> 10 µM (inactive)	> 10 µM (inactive)
Nc1nc(N)c2cc(Sc3ccc4nc(N)nc(N)c4c3)ccc2n1	> 100 µM (inactive)	> 100 µM (inactive)	> 100 µM (inactive)	> 100 µM (inactive)	10.9 µM (inactive)	> 29.2 µM (inactive)	> 100 µM (inactive)	0.659 µM		1.13 µM (inactive)	0.2 µM (active)			> 100 µM (inactive)	0.0533 µM (active)	> 100 µM (inactive)	> 100 µM (inactive)	> 100 µM (inactive)		0.0522 µM (active)
c1ccc(C(NC2=NCCO2)C2CC2)cc1 (centres undefined)	> 100 µM (inactive)	> 100 µM (inactive)	> 100 µM (inactive)	> 100 µM (inactive)	> 100 µM (inactive)	> 100 µM (inactive)	> 100 µM (inactive)	> 100 µM	> 100 µM (inactive)	> 100 µM (inactive)	82.8 µM (inactive)	> 100 µM (inactive)	> 100 µM (inactive)	> 100 µM (inactive)		> 100 µM (inactive)	> 100 µM (inactive)	> 100 µM (inactive)	> 100 µM (inactive)	75.9 µM (inactive)
COC(=O)[C@@H]1O[C@]12[C@@H](CO[Si](C)(C)C(C)(C)C)O[C@@H](n1cc(C)c(=O)[nH]c1=O)[C@@H]2O[Si](C)(C)C(C)(C)C	26.2 µM (inactive)	23.5 µM (inactive)	32.5 µM (inactive)	19.1 µM (inactive)	28.4 µM (inactive)	21 µM (inactive)	7.35 µM (inactive)	4.35 µM		18.2 µM (inactive)	15.2 µM (inactive)	13.8 µM (inactive)	20.4 µM (inactive)		3.12 µM (inactive)	19.5 µM (inactive)	12.3 µM (inactive)		21.2 µM (inactive)	19.5 µM (inactive)
O=[N+]([O-])c1ccc(-c2nc3cc([N+](=O)[O-])ccc3[nH]2)cc1	31.9 µM (inactive)	39.3 µM (inactive)	47.2 µM (inactive)	40.5 µM (inactive)	14.3 µM (inactive)	39.6 µM (inactive)	63.7 µM (inactive)	34.9 µM	31 µM (inactive)	27.9 µM (inactive)	19 µM (inactive)	23.9 µM (inactive)	16.4 µM (inactive)	7.66 µM (inactive)		21.9 µM (inactive)	25.4 µM (inactive)	19.6 µM (inactive)	20 µM (inactive)	29.4 µM (inactive)
C/C(=N\Nc1nc2ccccc2[nH]1)c1cccc[n+]1[O-]	> 100 µM (inactive)	3.03 µM (inactive)	> 100 µM (inactive)	> 100 µM (inactive)	65.8 µM (inactive)	45.4 µM (inactive)	45.2 µM (inactive)	51.5 µM	> 100 µM (inactive)	> 100 µM (inactive)	88.3 µM (inactive)	> 100 µM (inactive)	> 100 µM (inactive)	64.6 µM (inactive)		> 100 µM (inactive)	75 µM (inactive)	33.9 µM (inactive)	3.48 µM (inactive)	> 100 µM (inactive)
Cc1cc(C)c(S(=O)(=O)N(CCCCN)OCCCN)c(C)c1		16.4 µM (inactive)	17.5 µM (inactive)	16 µM (inactive)	9.04 µM (inactive)	16.5 µM (inactive)	15.2 µM (inactive)		17.7 µM (inactive)	15.6 µM (inactive)	16.7 µM (inactive)	18.7 µM (inactive)	13.3 µM (inactive)	17.5 µM (inactive)		18.7 µM (inactive)	15.4 µM (inactive)	19 µM (inactive)	19.6 µM (inactive)	16.6 µM (inactive)
